Data published in patent US20100210649A1, “PYRIDAZINONES AND FURAN-CONTAINING COMPOUNDS” (Sloan-Kettering Institute for Cancer Research, priority 2006, published 2010).
“And” between values parts separate entries of the source, which are not always exact repeats. Equal entries are not always repeated. Where two headings read alike, the source gives them in different places.

What was measured:
H1650 = assay: Non Small Cell Lung Cancer proliferation assay (Alamar Blue reduction), H1650; type: cell-based, human; details: for IC50: read-out: IC50(uM) 1650; for inhibition at 10 µM: NCI-H1650, primary screening, H1650, read-out: PRIMARY HTS [%] H1650 (percentage inhibition); for inhibition at 10 µM / CONFIRMATION [%] 1650: 10 μM compound in 1% DMSO (v/v); for CONFIRMATION [%] 1650: percentage inhibition
Summary of the method: (§1)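 Human NSCLC cells were seeded at 250 cells/well with compound at a final 1% DMSO and treated for 48 hours at 37° C. 1% DMSO served as the high control.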

H1975 = assay: Non Small Cell Lung Cancer proliferation assay (Alamar Blue reduction), H1975; type: cell-based, human; details: for inhibition at 10 µM: NCI-H1975, primary screening, H1975, read-out: PRIMARY HTS [%] H1975 (percentage inhibition); for inhibition at 10 µM / CONFIRMATION [%] 1975: 10 μM compound in 1% DMSO (v/v); for CONFIRMATION [%] 1975: percentage inhibition
Summary of the method: as §1

H2030 = assay: Non Small Cell Lung Cancer proliferation assay (Alamar Blue reduction), H2030; type: cell-based, human; details: for inhibition at 10 µM: NCI-H2030, primary screening, H2030, read-out: PRIMARY HTS [%] H2030 (percentage inhibition); for inhibition at 10 µM / CONFIRMATION [%] 2030: 10 μM compound in 1% DMSO (v/v); for CONFIRMATION [%] 2030: percentage inhibition
Summary of the method: as §1

H3255 = assay: Non Small Cell Lung Cancer proliferation assay (Alamar Blue reduction), H3255; type: cell-based, human; details: for inhibition at 10 µM: NCI-H3255, primary screening, H3255, read-out: PRIMARY HTS [%] H3255 (percentage inhibition); for inhibition at 10 µM / CONFIRMATION [%] 3255: 10 μM compound in 1% DMSO (v/v); for CONFIRMATION [%] 3255: percentage inhibition
Summary of the method: as §1

[1] = tested on: NHBE (normal human bronchiolar epithelial cells); assay: cells; details: Homo sapiens, NHBE, read-out: IC50(uM) NHBE, phenylfuran-2-carboxamide SAR summary
Protocol: NHBE (normal human bronchiolar epithelial cells) are primary cells obtained from donor lungs and commercially available from Cambrex. The HPL1D (human peripheral lung epithelial) cell line has been immortalized with the SV40 large T-antigen. WI-38: human lung fibroblast cell line. HPLID, NHBE and WI-38 cells will serve as controls in the chemical screens. WT: wildtype; WT*: over-expressed wildtype.
Compounds were tested in dose response studies from […] to 5 nM against several non small cell lung cancer lines: H358, H827, H1118, H1650, H1734, H1975, H2030, and H3255, and were also studied in a 72 hour cytotoxicity assay against the NHBE and WI-38 cell lines.

[2] = Homo sapiens, NCI-H1650, phenylfuran-2-carboxamide SAR summary

SMILES: O=C(Nc1ccc(Cl)cc1C(F)(F)F)c1ccc([N+](=O)[O-])o1 [compound 64228]
- IC50 (H1650; [2]): 1.6 µM
- inhibition at 10 µM (H1650; Homo sapiens): 87%
- CONFIRMATION [%] 1650 (H1650): 111% and 107%
- IC50 (H1650; phenylfuran-2-carboxamide SAR summary): 2.31 µM
- inhibition at 10 µM (H1975; Homo sapiens): 82%
- CONFIRMATION [%] 1975 (H1975): 70% and 97%
- inhibition at 10 µM (H2030; Homo sapiens): 93%
- CONFIRMATION [%] 2030 (H2030): 90% and 105%
- inhibition at 10 µM (H3255; Homo sapiens): 91%
- CONFIRMATION [%] 3255 (H3255): 97%
- IC50 [1]: 13.2 µM

SMILES: O=C(NC1CCCCC1)c1ccc([N+](=O)[O-])o1 [compound 71763]
- IC50 (H1650; [2]): 1.39 µM
- inhibition at 10 µM (H1650; Homo sapiens): 87%
- CONFIRMATION [%] 1650 (H1650): 136%
- IC50 (H1975; Homo sapiens, NCI-H1975, phenylfuran-2-carboxamide SAR summary, read-out: IC50(uM) 1975): 3.54 µM
- inhibition at 10 µM (H1975; Homo sapiens): 61%
- CONFIRMATION [%] 1975 (H1975): 74%
- IC50 (H2030; Homo sapiens, NCI-H2030, phenylfuran-2-carboxamide SAR summary, read-out: IC50(uM) 2030): 3.79 µM
- inhibition at 10 µM (H2030; Homo sapiens): 82%
- CONFIRMATION [%] 2030 (H2030): 97%
- IC50 (H3255; Homo sapiens, NCI-H3255, phenylfuran-2-carboxamide SAR summary, read-out: IC50(uM) 3255): 2.98 µM
- inhibition at 10 µM (H3255; Homo sapiens): 77%
- CONFIRMATION [%] 3255 (H3255): 135%
- IC50 [1]: 24.9 µM
